Laboratory results reported in PMC10253812, “Novel 2-alkythio-4-chloro-N-[imino(heteroaryl)methyl]benzenesulfonamide Derivatives: Synthesis, Molecular Structure, Anticancer Activity and Metabolic Stability” (International Journal of Molecular Sciences, 2023).
Where two headings read alike, the source gives them in different places.

Experiments:
[1] = system: MCF-7 (breast cancer) cell line; assay: MTT cell viability assay, MCF-7; type: cell-based, human; conditions: Homo sapiens, MCF7; for viability at 100 µM: MCF-7, MTT, 72 h, read-out: Viability of cell line in the presence of 100 μM of the tested compound
Description: (§1) Compounds 8–24 were evaluated in vitro for their cytotoxic effect against three human cancer cell lines, i.e., HeLa (cervical cancer), HCT-116 (colon cancer) and MCF-7 (breast cancer), and the non-tumor cell line HaCaT using the MTT assay after 72 h of incubation. The results of tests are presented in Table 1 as IC50, indicating the concentration required for 50% inhibition of cell viability. Compounds 8–10 and 14–18 are not presented in the Table 1 because of their low potency (IC50 > 100 µM).
(§2) All chemicals, if not stated otherwise, were obtained from Sigma-Aldrich (St. Louis, MO, USA). The MCF-7, HeLa and HaCaT cell lines were purchased from Cell Lines Services (Eppelheim, Germany), and the HCT-116 cell line was purchased from ATCC (ATCC-No: CCL-247). The cells were cultured in Dulbecco’s modified Eagle’s medium (DMEM) supplemented with 10% fetal bovine serum, 2 mM glutamine, 100 units/mL of penicillin and 100 μg/mL of streptomycin. The cultures were maintained in a humidified atmosphere with 5% CO2 at 37 °C, in an incubator (Heraeus, HeraCell).
(§3) Cytotoxicity assay: Cell viability was determined using the MTT (3-(4,5-dimethylthiazol-2-yl)-2,5diphenyltetrazoliumbromide) assay. The cells were seeded in 96-well plates at a density of 5 × 10^3 cells/well and treated for 24, 48 and 72 h with the examined compounds in the concentration range 1–100 μM. Following treatment, MTT (0.5 mg/mL) was added to the medium, and the cells were further incubated for 2 h at 37 °C. the cells were lysed with DMSO, and the absorbance of the formazan solution was measured at 550 nm with a plate reader (Victor, 1420 multilabel counter). The experiment was performed in triplicate. The values are expressed as the mean ± SD of at least three independent experiments.

[2] = system: HeLa (cervical cancer) cell line; assay: MTT cell viability assay, HeLa; type: cell-based, human; conditions: for IC50: Homo sapiens, HeLa
Description: as §1
The cytotoxic activity of 11–13 was determined in a time-dependent manner with the MTT assay (Figure 3).
HeLa cells were treated with 11, 12 and 13 in the concentration range of 0–20 µM. […] After 48 h, the IC50 values for compounds 11, 12 and 13 were 6, 7 and 6 µM, respectively.
as §2, §3

[3] = In vitro metabolic stability assay; type: in vitro ADME, human; conditions: for half-life at 10 μM: pH 7.4, human liver microsomes 0.5 mg/mL, 1 mM NADPH, 10 μM compound, 37 °C, n = 3, read-out: in vitro metabolic half-life t1/2
Description: Human liver microsomes along with NADPH were used to assess their susceptibility to undergo first-phase oxidation reactions. The progress of biotransformation was followed by liquid chromatography–mass spectrometry. In order to support the in vitro results, we performed in silico calculations using the Human Liver Microsome-based model for CYP-mediated oxidations provided by the Xenosite online tool.
Stock solutions of the studied compounds were prepared at a concentration of 10 mM in DMSO. […] The incubation mixture contained the studied derivative at a 10 μM concentration, 1 mM NADPH (Sigma-Aldrich) and 0.5 mg/mL of human liver microsomes (HLM, Sigma-Aldrich) in potassium phosphate buffer (0.1 M, pH 7.4). The incubation was carried out in a thermostat at 37 °C and started by the addition of the compound of interest. Then, 20 μL samples were taken after 5, 15, 30, 45 and 60 min. The enzymatic reaction was terminated by the addition of an equal volume of ice-cold acetonitrile containing 10 μM sulfamethoxazole as an internal standard. Control incubations were performed without NADPH as a negative control reflecting NADPH-independent processes, such as chemical degradation and precipitation. After collection, the samples were immediately centrifuged (10 min, 10,000 rpm), and the resulting supernatant was directly analyzed or kept at −80 °C until LC-MS analysis. The natural logarithm of a compound over the IS peak area ratio was plotted vs. the incubation time.
The LC-MS analysis was performed on an Agilent 1260 system coupled to SingleQuad 6120 mass spectrometer (Agilent Technologies, Santa Clara, CA, USA). Poroshell EC-C18 (2.1 mm × 150 mm, 2.7 μm, Agilent Technologies, Santa Clara, CA, USA) was used in reversed-phase mode with gradient elution starting with 90% of phase A (0.1% formic acid in water) and 10% of phase B (0.1% dormic acid in acetonitrile). […] The total analysis time was 21 min at 25 °C, the flow rate was 0.5 mL/min, and the injection volume was 20 μL. The mass spectrometer was equipped with an electrospray ion source and operated in positive ionization mode. The mass analyzer was set for each individual compound to detectthe [M+H]^+ protonated molecule. The MSD parameters of the ESI source were as follows: nebulizer pressure 40 psig (N2), drying gas […] (N2), drying gas temperature 300 °C, capillary voltage 3.0 kV, fragmentor voltage 150 V.

HeLa cells [4] = assay: Apoptosis detection by Annexin V-PE and 7-AAD staining, flow cytometry; type: cell-based, human; conditions: 5 and 10 µM, 48 h
Description: In order to determine whether the anti-proliferative effects of 11, 12 and 13 were associated with their ability to induce apoptosis in HeLa cells, the induction of phosphatidylserine externalization by compounds 11, 12 and 13 was examined by flow cytometric analysis. The cells were treated with 2.5, 5 and 10 µM concentrations of 11, 12 and 13 for 24 and 48 h and stained with Annexin V-PE and 7-AAD. […] After 24 h of treatment, a significant increase in the early apoptotic population of cells was visible starting from the concentration of 5 µM.
Detection of apoptosis by Annexin V-PE and 7-AAD staining: Apoptosis induction was detected with an Annexin V-PE Apoptosis Detection Kit I (BD Biosciences, Belgium) according to the manufacturer’s instructions. The cells were treated with 11–13 (2.5, 5 and 10 µM) for 24 and 48 h. Following treatment, the cells were collected and stained with Annexin V-phycoerythrin (PE) and 7-amino-actinomycin (7-AAD) in Annexin-binding buffer for 15 min at RT in the dark. The acquisition was performed on a FACSCalibur cytometer (BD), and the data were analyzed with Flowing software (version 2.5).

HeLa cells [5] = assay: Cell cycle distribution analysis (PI staining, flow cytometry); type: cell-based, human; conditions: 48 h; for percentage of cells in the sub-G1 phase of the cell cycle: HeLa, 5, 7 and 10 µM
Description: The effects of compounds 11, 12 and 13 on the cell cycle phase distribution of HeLa cells were assessed by flow cytometry. The cells were treated with 5, 7 and 10 µM concentrations of […] and 13 for 48 h and stained with PI.
Cell Cycle Distribution Analysis: The effects of 11, 12 and 13 on the cell cycle distribution in HeLa cells were determined by flow cytometry analysis. The cells were treated with 11, 12 and 13 (5, 7 and 10 µM) for 48 h, after which they were fixed in cold 70% ethanol for 24 h. The fixed cells were treated with 100 µg/mL of RNAse (Invitrogen, Germany) and stained with 10 µg/mL of PI (Invitrogen, Germany) for 30 min at RT. The acquisition was performed on a FACSCalibur cytometer (BD), and the data were analyzed with Flowing software (version 2.5).

[6] = MTT assay, 72 h of incubation, read-out: IC50 HeLa
[7] = MTT, 24 h of treatment, 0–20 µM

Cc1cc(S(=O)(=O)NC(=N)n2ccn(C)c2=S)c(SCc2ccc(Cl)cc2)cc1Cl [Compound 11, 4-Chloro-N-[imino(3-methyl-2-thioxo-2,3-dihydro-1H-imidazol-1-yl)methyl]-5-methyl-2-(4-chlorobenzylthio)benzenesulfonamide]
IC50 ([1]; MTT assay, 72 h of incubation): > 100 µM
IC50 [2, 6]: 6 ± 0.1 µM
IC50 HeLa after 24 h [2, 7]: not reached
half-life at 10 μM [3]: 9.1 min
cells in the late stage of apoptosis (HeLa cells [4]): significant increase in cells in the late stage of apoptosis
percentage of cells in the sub-G1 phase of the cell cycle (HeLa cells [5]): increase in the percentage of cells in the sub-G1 phase

Cc1cc(S(=O)(=O)NC(=N)n2ccn(C)c2=S)c(SCc2cc3c(cc2Cl)OCO3)cc1Cl [Compound 12]
viability at 100 µM [1]: 100%
IC50 [2, 6]: 7 ± 0.3 µM
IC50 HeLa after 24 h [2, 7]: not reached
relative metabolic stability in vitro ([3]; human liver microsomes with NADPH, order 12 > 13 > 11): exhibited the best stability in vitro among the studied set of compounds
half-life at 10 μM [3]: 20.3 min
cells in the late stage of apoptosis (HeLa cells [4]): significant increase in cells in the late stage of apoptosis
percentage of cells in the sub-G1 phase of the cell cycle (HeLa cells [5]): increase in the percentage of cells in the sub-G1 phase
cell cycle arrest (HeLa cells [5]; HeLa, 7 and 10 μM): induced G2/M arrest

Cc1cc(S(=O)(=O)NC(=N)n2ccn(C)c2=S)c(SCc2cccc3ccccc23)cc1Cl [Compound 13, 4-Chloro-N-[imino(3-methyl-2-thioxo-2,3-dihydro-1H-imidazol-1-yl)methyl]-5-methyl-2-(naphthalen-1-ylmethylthio)benzenesulfonamide]
viability at 100 µM [1]: 100%
IC50 [2, 6]: 6 ± 0.1 µM
IC50 ([2]; MTT, 24 h of treatment, 0–20 µM, read-out: IC50 HeLa after 24 h): 18 µM
half-life at 10 μM [3]: 13.9 min
cells in the late stage of apoptosis (HeLa cells [4]): significant increase in cells in the late stage of apoptosis
percentage of cells in the sub-G1 phase of the cell cycle (HeLa cells [5]): increase in the percentage of cells in the sub-G1 phase
